Data set [1] can be described thus: Rat liver microsome stability (RLM) experiment. The class given is in vitro ADME. The following applies: rat liver microsomes 0.5 mg protein/mL, NADPH, 37° C., 0-45 min; for microsomal CLint: pH 7.4. The method, then: Rat liver microsomes (Xenotech, item No. R1000, lot No. 1310030), 100 mM potassium phosphate buffer solution (pH 7.4), 10 mM magnesium chloride.
Compound preparation: 5 μL of compound DMSO mother liquor (10 mM) was added to 495 μL of methanol to obtain an intermediate solution with a compound concentration of 100 μM. Then 50 μL of the intermediate solution was taken and dissolved in 450 μL of potassium phosphate buffer solution to obtain a test solution with a final concentration of 10 μM.
NADPH regeneration system (concentration of isocitrate dehydrogenase 1 unit/mL).
Liver microsomes (final concentration 0.5 mg protein/mL).
Reaction termination solution: cold acetonitrile containing 100 ng/mL Tolbutamide and 100 ng/mL Labetalol as an internal standard.
• (1) Preparation of Buffer Solution: • Buffer solution A: 1.0 L of 0.1 M potassium phosphate buffer solution containing 1.0 mM EDTA • Buffer solution B: 1.0 L of 0.1 M dipotassium phosphate buffer solution containing 1.0 mM EDTA • Buffer solution C: 0.1 M potassium phosphate buffer, 1.0 mM EDTA, pH 7.4, titrated with 700 mL of buffer solution B and buffer solution A, monitored by pH meter. • (2) Preparation of Reference Substance (Ketanserin) and Concentration of Administration Solution of the Test Substance
5000 administration solution: […] 10 mM DMSO reference substance stock solution and test substance stock solution were added to 190 μL of ACN, respectively. 1.5 μM administration solution (containing 0.75 mg/mL liver microsomes): […] administration solution and 18.75 μL of 20 mg/mL liver microsomes were added to 479.75 μL of buffer C on a wet ice. • (3) NADPH was added to buffer solution C to obtain a NADPH stock solution (6 mM). • (4) 30 μL of 1.5 μM administration solution (containing 0.75 mg/mL of liver microsomes) was taken on the wet ice and added to the wells of the test plate at different time points (0-, 5-, 15-, 30-, 45-min), respectively. • (5) Firstly, 135 μL of ACN containing IS was added to the wells of a 0 min test plate, and then 15 µL of the NADPH stock solution (6 mM) was added. • (6) The test plate at other time points and the NADPH stock solution were pre-heated in a 37° C. water bath for 5 minutes. • (7) 15 μL of the NADPH stock solution (6 mM) was taken and added to a pre-incubated test plate, and the reaction was started and timed. • (8) At 5 min, 15 min, 30 min and 45 min, 135 µL of CAN containing IS was added to the corresponding test plate respectively, and the test was completed. • (9) Test plates were shaken with a shaker (IKA, MTS 2/4) for 10 min (600 rpm/min) and then centrifuged for 15 min (Thermo Multifuge×3R, 5594 g). • (10) 50 μL of supernatant from each well was added to a 96-well sample plate containing 50 μL of ultrapure water (Millipore, ZMQS50F01), and the samples were analyzed by LC/MS.

A short description of data set [2]: Pharmacokinetic experiment on rats: maximum plasma drug concentration (Cmax). Type of data set: in vivo. The settings on record: rat, male SD rats, po, 10 mg/kg, 5% CMC-Na aqueous solution. As to the method: In the pharmacokinetic experiment on rats, the maximum plasma drug concentration (Cmax) was used to evaluate the absorption of the compounds in rats. All rats fasted overnight before administration; the test compounds were dissolved and administered orally (po) to male SD rats, with 3 rats in each group. After administration of the test compounds, blood was collected by jugular vein puncture at […] with about 0.25 mL per sample. The plasma drug concentration was determined by LC-MS/MS method, and the pharmacokinetic parameters were calculated by Phoenix WinNonlin7.0. The dosage was 10 mg/kg, and the vehicle was 5% CMC-Na aqueous solution.

Data set [3] can be described thus: Water solubility observed during work-up. Type of data set: physicochemical. The settings on record: observation at extraction, pH=7. The method, then:
Methyl 6-[7-methoxy-3-(5-methyl-isoxazol-3-yl)-[1,2,4]triazolo[4,3-b]pyridazin-6-yloxymethyl]-nicotinate (300 mg, 0.75 mmol), 1 M lithium hydroxide (1.5 mL, 1.5 mmol) were sequentially added to 10 mL of ethanol, and the mixture was stirred at room temperature for 1 hour. The mixture was added with 0.5 M hydrochloric acid to neutralize to pH=7, diluted with water, extracted with ethyl acetate. […] LC-MS: m/z [M+H]^+=383.

The nature of data set [4]: Pharmacokinetic experiment on rats: brain entry ratio (brain tissue/plasma concentration ratio). Type of data set: in vivo. The following applies: male SD rats, po, 10 mg/kg, 0.5 hours. The method, then:
The drug concentration ratio of plasma and brain tissue in the pharmacokinetic experiment on rats was used to evaluate the entry of compounds into brain. All rats fasted overnight before administration; the test compounds were dissolved and administered orally (po) to male SD rats, with 3 rats in each group. After administration of the test compounds, blood was collected by jugular vein puncture at 0.5 hours with about 0.25 mL per sample. The whole brain was taken at the same time. The plasma and brain tissue drug concentration were determined by LC-MS/MS method, and the pharmacokinetic parameters were calculated by Phoenix WinNonlin7.0. The dosage was 10 mg/kg, and the vehicle was 5% CMC-Na aqueous solution.

The test system of data set [5] is α5-GABAA receptor. On the set-up: suppression of the current induced by GABA: dose or concentration left out as unconfirmed. The following applies: cited from earlier work.
Data set [6] relates to α5-GABAA receptor. The following applies: animal models; cited from earlier work.

In data set [1], `CCNC(=O)c1ccc(COc2nn3c(-c4cc(C)on4)nnc3cc2C(C)(C)C)nc1` [Compound 42 in CN107344936A, reference compound] gave a microsomal CLint of 143 µL/min/mg.
For the compound `COc1cc2nnc(-c3cc(C)on3)n2nc1OCc1ccccn1` [Embodiment 33], the microsomal CLint in data set [1] came out at 0.3 µL/min/mg. Besides, the highest level in data set [2] (Cmax) was 1780 ng/mL.
Regarding `CCNC(=O)c1ccc(COc2nn3c(-c4cc(C)on4)nnc3cc2OC)nc1` [Embodiment 35], the microsomal CLint in data set [1] is 11.4 µL/min/mg.
For `COc1cc2nnc(-c3cc(C)on3)n2nc1OCc1ccc(C(=O)O)cn1` [Embodiment 63], the water solubility result in data set [3] was “good water solubility”.
`COc1cc2nnc(-c3cc(C)on3)n2nc1OCc1ccc2c(n1)CCN(C1COC1)C2` [Embodiment 84] registered an RLM in data set [1] of 0 µL/min/mg.
`COc1cc2nnc(-c3cc(C)on3)n2nc1OCc1ccc(C2(F)CN(C3COC3)C2)cn1` [Embodiment 128] came in with an intrinsic clearance (microsomal CLint) in data set [1] of 6 µL/min/mg.
The same measure, in the same setting: to `COCCCOc1ccc(COc2nn3c(-c4noc(C)n4)nnc3cc2OC)nn1` [Embodiment 129] belongs 14 µL/min/mg; to `COCc1ccc(COc2nn3c(-c4cc(C)on4)nnc3cc2OC)nn1` [Embodiment 151], 1 µL/min/mg.
Compound `COc1cc2nnc(-c3cc(C)on3)n2nc1OCc1ccc(OC2CCOCC2)nn1` [Embodiment 152] returned a microsomal CLint in data set [1] of 23 µL/min/mg.
In data set [1], `COc1cc2nnc(-c3cc(C)on3)n2nc1OCc1ccc(OC2COC2)nn1` [Embodiment 153] gave a microsomal CLint of 5 µL/min/mg.
The compound `COc1cc2nnc(-c3cc(C)on3)n2nc1OCc1ccc(OC2CCOC2)nn1` (stereo not shown) [Embodiment 154] registered a microsomal CLint in data set [1] of 1 µL/min/mg.
`COc1cc2nnc(-c3cc(C)on3)n2nc1OCc1ccc2c(n1)CN(C)C2` [Embodiment 160] returned a microsomal CLint in data set [1] of 6 µL/min/mg.
In turn, `COCCOCc1ccc(COc2nn3c(-c4cc(C)on4)nnc3cc2OC)nn1` [Embodiment 166] yielded an RLM in data set [1] of 0 µL/min/mg.
As to `COc1cc2nnc(-c3cc(C)on3)n2nc1OCc1ccc2c(n1)CCN(C1CCOC1)C2` (stereo not shown) [Embodiment 183], in data set [1], the microsomal CLint was 5 µL/min/mg.
In turn, `COc1cc2nnc(-c3cc(C)on3)n2nc1OCc1ccc2c(n1)CCN(C(CO)CO)C2` [Embodiment 185] displayed a microsomal CLint in data set [1] of 9 µL/min/mg. In data set [4], the Brain entry ratio was found to be 0%.
With `COc1cc2nnc(-c3cc(C)on3)n2nc1OCc1ccc2c(n1)CCN(C1CCOCC1)C2` [Embodiment 186], the microsomal CLint in data set [1] was 22 µL/min/mg.
Same read-out and setting: to `COc1cc2nnc(-c3cc(C)on3)n2nc1OCc1ccc2c(n1)CCN(Cc1cc(C)on1)C2` [Embodiment 187] belongs 15 µL/min/mg.
`COc1cc2nnc(-c3cc(C)on3)n2nc1OCc1ccc2nc(C#N)cn2n1` [Embodiment 211] yielded a microsomal CLint in data set [1] of 5 µL/min/mg.
`COCc1cn2nc(COc3nn4c(-c5cc(C)on5)nnc4cc3OC)ccc2n1` [Embodiment 213] had a microsomal CLint in data set [1] of 10 µL/min/mg.
On the same count and under the same terms, to `COc1cc2nnc(-c3cc(C)on3)n2nc1OCc1ccc2c(n1)CN(C1CCOCC1)C2` [Embodiment 253] belongs 10 µL/min/mg.
Regarding `CCOC(=O)c1ncn2c1[C@@H]1CCCN1C(=O)c1cc(OC)ccc1-2` [L-655,708], the “inhibitory effect on the current induced by GABA” value with α5-GABAA receptor [5] (GABA concentration increased further) is listed as “no inhibitory effect”. Also, in the data set on α5-GABAA receptor [5] (highest concentration of L-655,708), the “suppression of the current induced by GABA” value is recorded as 15%. The “inhibition of the current induced by GABA” value with α5-GABAA receptor [5] (low concentrations of GABA (5, 50 and 500 nM)) is recorded as “dose-dependently inhibited”.
With `Cc1cc(-c2nncc3c(C(C)(C)C)c(OCc4ncnn4C)nn23)no1` [MRK-016], the “therapeutic effects on cognition related diseases” value in the data set on α5-GABAA receptor [6] was “good therapeutic effects”.
On to `Cc1cc(-c2nnc3cc(C(C)(C)C)c(OCc4ccccn4)nn23)no1` [drawing 926, reference compound], for which, in data set [1], the microsomal CLint was determined as 33.6 µL/min/mg.
In data set [2], `Cc1cc(-c2nnc3cc(C(C)(C)C)c(OCc4ccccn4)nn23)no1` [drawing 930] registered a Cmax of 216 ng/mL.
Turning to `Cc1cc(-c2nnc3c4ccccc4c(OCc4cn(C)nn4)nn23)no1` [α5IA], in the data set with α5-GABAA receptor [6], the “therapeutic effects on cognition related diseases” value is “good therapeutic effects”.
On to `Cc1cc(-c2nnc3c4ccccc4c(OCc4ccccn4)nn23)no1` [α51A-II, reference compound], for which the microsomal CLint in data set [1] was found to be 28.2 µL/min/mg. The compound also had a Cmax in data set [2] of 25.7 ng/mL.

These data come from US20260285870A1, “TRIAZOLOPYRIDAZINE DERIVATIVE, PREPARATION METHOD THEREFOR, PHARMACEUTICAL COMPOSITION THEREOF, AND USE THEREOF” (SHANGHAI SIMR BIOTECHNOLOGY CO., LTD., priority 2019, published 2026).
